We go through three molecules from ChEMBL document CHEMBL4414586, “Identification of CNS-Penetrant Aryl Sulfonamides as Isoform-Selective NaV1.6 Inhibitors with Efficacy in Mouse Models of Epilepsy” (J Med Chem, 2019).

As a reminder, the logD is lipophilicity at a set pH, counting ionised and neutral species. Read a low logD as a more hydrophilic compound.

A short description of series [1]: Ratio of drug uptake in 129/C57BL/6J mouse brain to plasma at 30 mg/kg, po after 2 hrs by UHPLC/MS/MS analysis. The class given is ADME, organism-based. The note with it: brain and plasma, read-out: BPR.
Series [2] is described as follows: physchem. The note with it: 1-octanol/PBS, pH 7.4.

On to `COc1ccc(F)c([C@H](C)Nc2cc(F)c(S(=O)(=O)Nc3cscn3)cc2Cl)c1`, for which, in series [1], the Kp at 2 h stood at 0.28. The molecule also returned a logD at 1 h in series [2] of 3.4.
Molecule `C[C@H](Nc1cc(F)c(S(=O)(=O)Nc2cscn2)cc1Cl)c1cc(CN2CCC2)ccc1F` came in with a pH-dependent lipophilicity (logD) at 1 h in series [2] of 1.5.
Same read-out and setting: as for `O=S(=O)(Nc1cscn1)c1cc(Cl)c(NCc2cc(CN3CCC3)ccc2F)cc1F`, the figure is 1.4.
